We go through eleven compounds from ChEMBL document CHEMBL1781922, “Synthesis, biological evaluation, and molecular docking study of 3-(3'-heteroatom substituted-2'-hydroxy-1'-propyloxy) xanthone analogues as novel topoisomerase IIα catalytic inhibitor” (Eur J Med Chem, 2011).

pIC50: −log10 of the molar value. Where a name gives a salt, the structure may show the parent alone. Activity calls are given as the source filed them. No cut-off for these calls is given here.

Test [1] concerns the target T1, DNA topoisomerase 1 (Homo sapiens) (UniProt P11387).
T1 sequence (whole entry): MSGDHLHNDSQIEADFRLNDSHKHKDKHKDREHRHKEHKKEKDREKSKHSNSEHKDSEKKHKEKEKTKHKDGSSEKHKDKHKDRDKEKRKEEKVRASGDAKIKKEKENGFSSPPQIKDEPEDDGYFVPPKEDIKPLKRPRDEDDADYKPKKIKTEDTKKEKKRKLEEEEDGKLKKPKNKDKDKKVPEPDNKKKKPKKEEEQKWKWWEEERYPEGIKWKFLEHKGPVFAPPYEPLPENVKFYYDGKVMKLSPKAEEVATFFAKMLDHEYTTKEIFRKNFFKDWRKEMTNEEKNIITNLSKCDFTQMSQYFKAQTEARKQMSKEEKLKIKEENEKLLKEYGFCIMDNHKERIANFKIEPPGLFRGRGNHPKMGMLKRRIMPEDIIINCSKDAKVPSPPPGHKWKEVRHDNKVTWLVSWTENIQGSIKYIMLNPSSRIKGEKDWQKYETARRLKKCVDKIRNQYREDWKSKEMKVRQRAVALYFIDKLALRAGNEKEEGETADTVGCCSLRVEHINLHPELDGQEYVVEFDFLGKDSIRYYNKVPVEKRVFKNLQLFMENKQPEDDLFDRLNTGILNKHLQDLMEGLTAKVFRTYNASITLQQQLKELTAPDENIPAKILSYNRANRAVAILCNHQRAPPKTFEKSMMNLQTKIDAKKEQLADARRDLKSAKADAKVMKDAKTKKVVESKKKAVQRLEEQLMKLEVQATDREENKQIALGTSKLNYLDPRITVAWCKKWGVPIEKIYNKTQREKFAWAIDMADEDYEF
Kind of test: Inhibition of human recombinant topoisomerase 1-mediated relaxation of supercoiled pBR322 DNA at 20 uM after 30 mins using ethidium bromide staining by transillumination analysis.

In test [2] the target is DNA topoisomerase 2-alpha (Homo sapiens) (UniProt P11388). Kind of test: Inhibition of human topoisomerase 2alpha-mediated relaxation of supercoiled pBR322 DNA at 10 uM after 30 mins using ethidium bromide staining by transillumination analysis.
Sequence of DNA topoisomerase 2-alpha (Homo sapiens) (P11388 whole entry): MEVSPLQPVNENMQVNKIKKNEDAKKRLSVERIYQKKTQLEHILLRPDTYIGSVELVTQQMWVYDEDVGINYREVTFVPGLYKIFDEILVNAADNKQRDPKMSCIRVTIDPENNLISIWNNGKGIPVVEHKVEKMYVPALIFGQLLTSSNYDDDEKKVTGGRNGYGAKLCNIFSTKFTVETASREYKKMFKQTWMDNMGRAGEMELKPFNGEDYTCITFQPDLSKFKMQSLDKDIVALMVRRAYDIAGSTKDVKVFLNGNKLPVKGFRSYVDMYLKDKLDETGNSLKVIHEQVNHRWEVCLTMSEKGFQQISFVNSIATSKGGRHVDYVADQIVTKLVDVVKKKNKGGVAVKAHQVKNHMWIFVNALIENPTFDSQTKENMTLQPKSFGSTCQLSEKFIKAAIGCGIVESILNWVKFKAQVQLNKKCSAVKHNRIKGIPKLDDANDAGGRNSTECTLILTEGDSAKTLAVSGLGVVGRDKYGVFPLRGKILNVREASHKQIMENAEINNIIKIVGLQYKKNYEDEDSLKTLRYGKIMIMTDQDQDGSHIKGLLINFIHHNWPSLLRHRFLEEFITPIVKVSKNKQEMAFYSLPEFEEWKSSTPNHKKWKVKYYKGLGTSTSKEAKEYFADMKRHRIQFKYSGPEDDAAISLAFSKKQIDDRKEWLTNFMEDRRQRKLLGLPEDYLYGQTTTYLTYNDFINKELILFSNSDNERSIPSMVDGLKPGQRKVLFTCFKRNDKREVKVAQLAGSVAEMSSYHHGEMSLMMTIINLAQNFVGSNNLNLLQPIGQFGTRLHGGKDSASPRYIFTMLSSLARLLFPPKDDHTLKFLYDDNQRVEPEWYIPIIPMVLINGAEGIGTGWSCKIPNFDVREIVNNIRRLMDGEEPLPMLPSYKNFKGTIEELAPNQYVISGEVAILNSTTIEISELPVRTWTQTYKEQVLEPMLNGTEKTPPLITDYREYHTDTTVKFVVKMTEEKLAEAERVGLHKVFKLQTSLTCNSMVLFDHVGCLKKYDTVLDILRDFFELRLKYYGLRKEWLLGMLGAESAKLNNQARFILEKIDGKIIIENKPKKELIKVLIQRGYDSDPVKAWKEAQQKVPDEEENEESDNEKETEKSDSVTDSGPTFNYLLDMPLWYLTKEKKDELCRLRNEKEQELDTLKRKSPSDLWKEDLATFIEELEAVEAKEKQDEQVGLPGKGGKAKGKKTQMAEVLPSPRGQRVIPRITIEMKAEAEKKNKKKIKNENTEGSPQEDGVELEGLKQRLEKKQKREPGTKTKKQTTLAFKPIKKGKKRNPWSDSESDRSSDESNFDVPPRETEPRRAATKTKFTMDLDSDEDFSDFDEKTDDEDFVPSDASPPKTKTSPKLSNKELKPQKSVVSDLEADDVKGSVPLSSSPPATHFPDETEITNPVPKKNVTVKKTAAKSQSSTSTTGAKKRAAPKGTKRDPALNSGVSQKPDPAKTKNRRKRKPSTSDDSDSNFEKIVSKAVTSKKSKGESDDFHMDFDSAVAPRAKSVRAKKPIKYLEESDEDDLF
For another test, the system named is HeLa. Kind of test: Cytotoxicity against human HeLa cells after 2 days. As to conditions: 48 h.
The target of test [3] is DNA topoisomerase 2-alpha (Homo sapiens) (UniProt P11388). Kind of test: Inhibition of human topoisomerase 2alpha-mediated relaxation of supercoiled pBR322 DNA at 20 uM after 30 mins using ethidium bromide staining by transillumination analysis.
The target is the same in test [4]. Nature of the test: Inhibition of human topoisomerase 2alpha-mediated relaxation of supercoiled pBR322 DNA at 100 uM after 30 mins using ethidium bromide staining by transillumination analysis.
The test system of a further test is HCT-116. Kind of test: Cytotoxicity against human HCT116 cells after 2 days. The test is classed as functional, cell-based. To be noted: HCT-116, 48 h.
The next test has as its system MDA-MB-231. Kind of test: Cytotoxicity against human MDA-MB-231 cells after 2 days. To be noted: MDA-MB-231, 48 h.
In another test the test system is HL-60. Nature of the test: Cytotoxicity against human HL60 cells after 2 days. As to conditions: HL-60, 48 h. The test is classed as functional, cell-based.
The test system of the next test is DU-145. Nature of the test: Cytotoxicity against human DU145 cells after 2 days. As to conditions: DU-145, 48 h. The test is classed as functional, cell-based.
Test [5] has as its target DNA topoisomerase 2-alpha (Homo sapiens) (UniProt P11388). Nature of the test: Inhibition of human topoisomerase 2alpha-mediated relaxation of pUC18 DNA at 400 uM after 30 mins by malachite green ATPase assay in presence of 1 to 4 mM of ATP.
Test [6] shares this target. Kind of test: Inhibition of human topoisomerase 2alpha-mediated ATP hydrolysis at 400 uM after 30 mins by malachite green ATPase assay.

In the case of `O=c1c2ccccc2oc2cc(OCC(O)CSCCCO)cc(O)c12` (centres undefined), the inhibition came out at 0% in test [1], 17.5% in test [2], 26.1% in test [3] and 68% in test [4]. Also, the pIC50 with HeLa was 4.91; in the test with HCT-116 it was below 4.00; with MDA-MB-231, 5.08; in the test with HL-60 it was 4.56; with DU-145 it was 4.39.

For `O=c1c2ccccc2oc2cc(OCC(O)CNCCCO)cc(O)c12` (centres undefined), the inhibition in [1] stood at 3.45%; in test [2], 38.7%; in [3], 62.8%; in test [4], 100%. In addition, the pIC50 in the test on HeLa is 4.72; in the test on HCT-116, 4.50; with MDA-MB-231, 5.16; in the test on HL-60, 5.05; in the test on DU-145 it was 5.80.

For the compound `CCCNCC(O)COc1cc(O)c2c(=O)c3ccccc3oc2c1` (centres undefined), the inhibition entry in test [5] is “inactive”. In addition, the inhibition in test [1] was determined as 0%; in test [2], 41.2%; in [3], 70%; in test [4], 100%; in test [6] it was 28.5%. Further, the pIC50 is 4.93 in the test on HeLa; 4.63 in the test on HCT-116; 5.39 in the test on MDA-MB-231; 5.38 in the test with HL-60; 6.12 with DU-145.

Regarding `O=c1c2ccccc2oc2cc(OCC(O)CN(CCO)CCO)cc(O)c12` (centres undefined), the inhibition in test [1] is 0%; in [2], 17.4%; in test [3], 45.8%; in [4], 100%. Also, the pIC50 was 4.82 in the test with HeLa; 4.25 in the test on HCT-116; 4.83 in the test on MDA-MB-231; 4.80 with HL-60; 5.80 with DU-145.

Take `O=c1c2ccccc2oc2cc(OCC(O)COCCO)cc(O)c12` (centres undefined): the inhibition in test [1] is 0%; in test [2], 23.4%; in [3], 43.7%; in test [4], 89.2%. Moreover, the pIC50 with HeLa is 4.81; in the test on HCT-116, 4.33; in the test on MDA-MB-231, 4.98; in the test on HL-60, 4.78; with DU-145, 4.81.

On to `COc1cc([C@@H]2c3cc4c(cc3[C@@H](O[C@@H]3O[C@@H]5CO[C@@H](C)O[C@H]5[C@H](O)[C@H]3O)[C@H]3COC(=O)[C@H]23)OCO4)cc(OC)c1O` [ETOPOSIDE], for which the values for the inhibition in [2] and in [4] were 26% and 77.1%, respectively. Besides, the pIC50 in the test on HeLa is 5.63; with HCT-116, 5.02; in the test with MDA-MB-231, 5.91; with HL-60 it was 5.89; with DU-145, 5.66.

With `CC[C@@]1(O)C(=O)OCc2c1cc1n(c2=O)Cc2cc3ccccc3nc2-1` [CAMPTOTHECIN], the pIC50 in the test on HCT-116 was 5.40; with MDA-MB-231, 6.01; with DU-145, 6.51.

`COc1cccc2c1C(=O)c1c(O)c3c(c(O)c1C2=O)C[C@@](O)(C(=O)CO)C[C@@H]3O[C@H]1C[C@H](N)[C@H](O)[C@H](C)O1` [DOXORUBICIN HYDROCHLORIDE]: the negative logarithm of the IC50 (pIC50) in the test on HCT-116 is 5.17; in the test on HL-60 it was 6.49; in the test on DU-145, 5.61.

As to `O=c1c2ccccc2oc2cc(OCC(O)CSCCO)cc(O)c12` (centres undefined), the inhibition in test [1] is 0%; in test [2], 26.3%; in test [3], 49.1%; in test [4] it was 63.8%. Moreover, the negative logarithm of the IC50 (pIC50) was 5.04 in the test on HeLa; 4.62 in the test with HCT-116; 5.29 in the test with MDA-MB-231; 4.70 in the test with HL-60; 5.46 with DU-145.

For `O=c1c2ccccc2oc2cc(OCC(O)CNCCO)cc(O)c12` (centres undefined), the inhibition in test [1] is 1.08%; in test [2], 35.5%; in test [3], 70.3%; in test [4], 100%. Moreover, the pIC50 in the test with HeLa is 5.07; with HCT-116, 4.70; with MDA-MB-231, 5.45; in the test on HL-60 it was 5.01; with DU-145 it was 5.39.

`CO[C@@H]1[C@@H](OC(N)=O)[C@@H](O)[C@H](Oc2ccc3c(O)c(NC(=O)c4ccc(O)c(CC=C(C)C)c4)c(=O)oc3c2C)OC1(C)C` came in with an inhibition in test [6] of 60.4%.
